{
  "source": "patent US20070122366A1",
  "about": "(priority 2005, published 2007)",
  "origin": "cited, not measured here",
  "key": {"[1]": {"conditions": "oral administration"}},
  "data": [
    {"compound": "CN(C/C=C/C#CC(C)(C)C)Cc1cccc2ccccc12", "note": "[Terbinafine]", "values": [
      {"measurement": "average mycological cure", "setting": "onychomycosis; 18 randomized controlled trials, onychomycosis", "value": 76, "unit": "%"},
      {"measurement": "activity in comparative studies", "setting": "onychomycosis; treatment of toenail onychomycosis", "value": "greater than itraconazole and fluconazole"},
      {"measurement": "persistence of concentration in nails", "setting": "[1]; after the treatment has finished", "value": "at least 30 weeks"},
      {"measurement": "time at which concentration in nails is detected", "setting": "[1]; after therapy started", "value": "within the first week"}
    ]}
  ]
}
